Tests used:
[1] = system: metastatic melanoma; conditions: cited from earlier work
[2] = system: AML patient blast cells; assay: Flow cytometry (MMP, ROS, GSH, membrane integrity) of primary AML patient blasts treated ex vivo; format: cell-based, human
Method: • Cell lines: OCI-AML2, OCI-AML5, OCI-M2 (p53 mutant M6), MV4-11 (FLT3-ITD) • Patients were treated by the Princess Margaret Hospital Leukemia Program. • Primary blasts from 10 AML patients isolated by density gradient or RBC lysis, maintained in a-MEM+10% FBS±10% 5637-conditioned medium. Flow Cytometry Protocol: • Combined staining at 37° for: • MMP—DiIC1(5) 40 nM 30′ • ROS—carboxy-dichlorofluorescin […] or dihydrorhodamine 123 […] for 30′ • GSH—monobromobimane […] for 5′ • Surface membrane integrity—propidium iodide […] for 5′ • Samples run on 3 laser flow cytometer (Gallios, Beckman-Coulter)

| SMILES | primary endpoint, difference between the two arms ([1]; elevated LDH population) | survival endpoint ([1]; elevated LDH population) | progression-free survival improvement (primary endpoint) ([1]; normal LDH population) | safety profile ([1]; normal LDH population) | mitochondrial dysfunction and cell death ([2]; ex vivo treatment of primary blast cells from patients with AML) | ROS ([2]; Patient #123 blasts, 100nM, 6 hr, FIG. 3a) | loss of mitochondrial membrane potential versus outer membrane integrity (dual MMP/PI plots) ([2]; Patient #123 blasts, FIG. 3a) | reduced GSH ([2]; Patient #123 blasts, FIG. 3a) | sensitivity of primary patient blasts compared with AML cell lines ([2]; Patient #123 blasts, FIG. 3a) | sensitivity of blasts ([2]; Patient #126 blasts, FIG. 3d) | GSH ([2]; Patient #127 blasts, 30 nM, already evident at 6 hr, FIG. 3b) | sensitivity of blasts ([2]; Patient #131 blasts (higher baseline GSH), FIG. 3c) | GSH and MMP ([2]; Patient #131 blasts, FIG. 3c) | ROS ([2]; Patient #131 blasts, most evident at 30 nM 24 hr, FIG. 3c) | depletion of GSH and dissipation of mitochondrial membrane potential ([2]; all cases) | impairment of primary blasts ([2]; all samples, 30 nM) |
| --- | --- | --- | --- | --- | --- | --- | --- | --- | --- | --- | --- | --- | --- | --- | --- | --- |
| CN(NC(=O)CC(=O)NN(C)C(=S)c1ccccc1)C(=S)c1ccccc1 [elesclomol, N-malonyl-bis(N′-methyl-N′-thiobenzoylhydrazide)] | no difference was observed | negative impact | achieved | acceptable safety profile | rapidly induced mitochondrial dysfunction and cell death |  |  |  |  |  |  |  |  |  |  |  |
| CN1C(c2ccccc2)=[SH][Cu]23[SH]=C(c4ccccc4)N(C)[N]2C(=O)CC(=O)[N]13 [elesclomol-Cu(II)] |  |  |  |  |  | slight increase in ROS | loss of mitochondrial membrane potential precedes the loss of outer membrane integrity | lost co-incident with the loss of MMP | more drug-sensitive | highly sensitive | loss of GSH | less sensitive | loss of GSH co-incident with loss of MMP | increased ROS | occurred in all cases | significant impairment |

Reference: patent publication US8822532B2, “Bis[thiohydrazide amide] compounds for treating leukemia” (Synta Pharmaceuticals Corp., priority 2009, dated 2014)
